Results reported in patent publication US9150840B2, “Isolated bacterial strain of Achromobacter sp. MTCC 5605 and a highly enantioselective epoxide hydrolase isolated therefrom” (COUNCIL OF SCIENTIFIC & INDUSTRIAL RESEARCH, priority 2011, dated 2015).
Read-outs that look alike come from different tables or passages of the source.

How the values were obtained:
[1] = test system: Achromobacter sp. MTCC 5605; experiment: Antibiotic sensitivity of the isolated strain; assay type: cell-based
[2] = test system: epoxide hydrolase from Achromobacter sp. MTCC 5605; assay type: biochemical; conditions: pH 8

Molecule	Inhibition of epoxide hydrolase activity [2]	Antibiotic sensitivity [1]	also measured
Gentamycin			Antibiotic sensitivity ([1]; amount per antibiotic as printed (5-30 mcg, 10 units)): Sensitive to Erythromycin (10 mcg), Gentamycin (10 mcg),
CCCCCCCCCCCCCCCC[N+](C)(C)C.[Br-] [cetyltrimethylammonium bromide]	none of them showed any inhibition		
CCOC(=O)OC(=O)OCC [diethyl pyrocarbonate]	none of them showed any inhibition		
NO [hydroxylamine]	none of them showed any inhibition		
O=C(N[C@H](CO)[C@H](O)c1ccc([N+](=O)[O-])cc1)C(Cl)Cl [Chloramphenicol]		Sensitive to Erythromycin (10 mcg), Gentamycin (10 mcg),	
CCCCCCCCCCCCOS(=O)(=O)[O-].[Na+] [sodium dodecyl sulphate]	none of them showed any inhibition		
CC1(C)S[C@@H]2[C@H](NC(=O)Cc3ccccc3)C(=O)N2[C@H]1C(=O)O [Penicillin-G]		Resistant to Penicillin-G (10 units), Methicillin (5 mcg),	
COc1cccc(OC)c1C(=O)N[C@@H]1C(=O)N2[C@@H]1SC(C)(C)[C@@H]2C(=O)O [Methicillin]		Resistant to Penicillin-G (10 units), Methicillin (5 mcg),	
CC[C@H]1OC(=O)[C@H](C)[C@@H](O[C@H]2C[C@@](C)(OC)[C@@H](O)[C@H](C)O2)[C@H](C)[C@@H](O[C@@H]2O[C@H](C)C[C@H](N(C)C)[C@H]2O)[C@](C)(O)C[C@@H](C)C(=O)[C@H](C)[C@@H](O)[C@]1(C)O [Erythromycin]		Sensitive to Erythromycin (10 mcg), Gentamycin (10 mcg),	
C[C@@H]1[C@H](O)[C@@H](C)/C=C/C=C/C=C/C=C/C=C/C=C/C=C/[C@H](O[C@@H]2O[C@H](C)[C@@H](O)[C@H](N)[C@@H]2O)C[C@@H]2O[C@](O)(C[C@@H](O)C[C@@H](O)[C@H](O)CC[C@@H](O)C[C@@H](O)CC(=O)O[C@H]1C)C[C@H](O)[C@H]2C(=O)O [Amphotericin B]		Resistant to Penicillin-G (10 units), Methicillin (5 mcg),	
O=C(O)CN(CCN(CC(=O)O)CC(=O)O)CC(=O)O [ethylenediaminetetraacetic acid]	none of them showed any inhibition		
O[C@H](CS)[C@H](O)CS (racemic) [dithiothreitol]	none of them showed any inhibition		
C[C@@H]1[C@H](O)[C@@H](C)/C=C/C=C/CC/C=C/C=C/C=C/C=C/C(O[C@H]2O[C@H](C)[C@@H](O)[C@H](N)[C@@H]2O)CC2O[C@](O)(CC(O)C(O)CCC(O)CC(O)CC(O)CC(=O)O[C@H]1C)CC(O)C2C(=O)O (stereo partly drawn) [Nystatin]		Resistant to Penicillin-G (10 units), Methicillin (5 mcg),	
NNc1ccccc1 [phenyl hydrazine]	none of them showed any inhibition		
O=C(O)c1cn(C2CC2)c2cc(N3CCNCC3)c(F)cc2c1=O [Ciprofloxacin]		Sensitive to Erythromycin (10 mcg), Gentamycin (10 mcg),	
